From ChEMBL document CHEMBL1130900, “Synthesis and structure-activity relationships of 2-pyridones: II. 8-(Fluoro-substituted pyrrolidinyl)-2-pyridones as antibacterial agents” (Bioorg Med Chem Lett, 1998) come the findings set out here.

In brackets after ≈: the same amount, converted by molar mass.

The MIC is the least concentration at which growth counts as inhibited. One may read the ED50 as the midpoint of the dose-response relation. The low end stands for greater potency, the high end for weaker potency.

Experiment [1] relates to Klebsiella aerogenes. Put plainly: Antibacterial activity against Enterobacter aerogenes ATCC 13048 was determined. Type of experiment: functional.
Experiment [2] relates to Klebsiella pneumoniae. As to the kind of experiment: Antibacterial activity against Klebsiella pneumoniae ATCC 8045 was determined. It counts as functional.
In experiment [3] the test system is Staphylococcus aureus. Put plainly: Antibacterial activity against Staphylococcus aureus NCTC-10649M was determined. Type of experiment: functional.
Experiment [4] concerns Streptococcus equinus. As to the kind of experiment: Antibacterial activity against Gram-positive Streptococcus bovis A5169 was determined. It counts as functional.
The subject of experiment [5] is Enterococcus faecium. As to the kind of experiment: Antibacterial activity against Enterococcus faecium ATCC 8043 was determined. It counts as functional.
Experiment [6] relates to Providencia stuartii. As to the kind of experiment: Antibacterial activity against Gram-negative Providencia Stuartii CMX640 was determined. It counts as functional.
The test system of experiment [7] is Escherichia coli. As to the kind of experiment: Antibacterial activity against Escherichia coli JUHL was determined. It counts as functional. As to conditions: Escherichia coli; read-out: MIC.
Experiment [8] concerns Staphylococcus aureus. Put plainly: Antibacterial activity against Staphylococcus aureus A1775 was determined. Type of experiment: functional.
Experiment [9] relates to Streptococcus pyogenes. As to the kind of experiment: Antibacterial activity against Streptococcus pyogenes EES61 was determined. It counts as functional.
The subject of experiment [10] is Pseudomonas aeruginosa. As to the kind of experiment: Antibacterial activity against Pseudomonas aeruginosa A-5007 was determined. It counts as functional.
Experiment [11] relates to Staphylococcus aureus. Put plainly: Effective dose against Staphylococcus aureus NCTC-10649M in mice upon subcutaneous administration. It counts as functional. To be noted: sc.
Experiment [12] deals with DNA gyrase (bacterial). Put plainly: Compound was tested for bacterial DNA gyrase activity. As to conditions: Bacteria.
The test system of experiment [13] is Staphylococcus aureus. As to the kind of experiment: Effective dose against Staphylococcus aureus NCTC-10649M in mice upon peroral administration. Type of experiment: functional. As to conditions: po.
Experiment [14] can be described thus: Compound was tested for its effective dose against Escherichia coli JUHL in mice upon peroral administration. To be noted: Mus musculus, po. It counts as functional.
Experiment [15] has as its system Escherichia coli. Put plainly: Effective dose against Escherichia coli JUHL in mice upon subcutaneous administration. Type of experiment: functional. To be noted: sc.
Setting [16] is: Klebsiella aerogenes, ATCC 13048, read-out: MIC.
[17] abbreviates: Klebsiella pneumoniae, ATCC 8045, read-out: MIC.
The mark [18] stands for this setting: Staphylococcus aureus, read-out: MIC.
Setting [19] is: Streptococcus equinus, read-out: MIC.
Setting [20] is: Enterococcus faecium, ATCC 8043, read-out: MIC.
The mark [21] stands for this setting: Providencia stuartii, read-out: MIC.
The mark [22] stands for this setting: Streptococcus pyogenes, read-out: MIC.
Setting [23] is: Pseudomonas aeruginosa, read-out: MIC.

As for `Cc1c(N2CC[C@@H]([C@@H](N)C(F)(F)F)C2)c(F)cn2c(=O)c(C(=O)O)cc(C3CC3)c12`, the MIC in [1] (setting [16]) was 1.56 µg/mL (≈ 3.65 µM); in experiment [2] (setting [17]), 0.39 µg/mL (≈ 0.912 µM); in experiment [3] (setting [18]), 0.02 µg/mL (≈ 0.0468 µM); in experiment [4] (setting [19]), 0.39 µg/mL (≈ 0.912 µM); in [5] (setting [20]) it was 0.39 µg/mL (≈ 0.912 µM); in experiment [6] (setting [21]), 6.2 µg/mL (≈ 14.5 µM). Also, the MIC in experiment [7] is 0.78 µg/mL (≈ 1.82 µM); in experiment [8] (setting [18]), 0.78 µg/mL (≈ 1.82 µM); in experiment [9] (setting [22]), 0.2 µg/mL (≈ 0.468 µM); in [10] (setting [23]) it was 6.2 µg/mL (≈ 14.5 µM).
In the case of `Cc1c(N2C[C@@H](CN)[C@H](C(F)(F)F)C2)c(F)cn2c(=O)c(C(=O)O)cc(C3CC3)c12`, the minimal inhibitory concentration (MIC) in experiment [1] (setting [16]) stood at 0.05 µg/mL (≈ 0.117 µM); in [2] (setting [17]) it was 0.01 µg/mL (≈ 0.0234 µM); in experiment [3] (setting [18]), 0.01 µg/mL (≈ 0.0234 µM); in experiment [4] (setting [19]), 0.02 µg/mL (≈ 0.0468 µM); in [5] (setting [20]) it was 0.02 µg/mL (≈ 0.0468 µM); in [6] (setting [21]), 1.56 µg/mL (≈ 3.65 µM). The minimal inhibitory concentration (MIC) was 0.02 µg/mL (≈ 0.0468 µM) in experiment [7], 0.78 µg/mL (≈ 1.82 µM) in experiment [8] (setting [18]), 0.02 µg/mL (≈ 0.0468 µM) in experiment [9] (setting [22]) and 0.39 µg/mL (≈ 0.912 µM) in [10] (setting [23]). Also, the ED50 is 0.7 mg/kg/day in experiment [11] and 2.6 mg/kg/day in [13]. Besides, in experiment [12], the CC50 is 6.5 µg/mL (≈ 15.2 µM).
Take `Cc1c(N2C[C@@H](N)[C@H](F)C2)c(F)cn2c(=O)c(C(=O)O)cc(C3CC3)c12` (stereo in doubt; 3a) [listing 1 of 2 here]: in experiment [12], the CC50 amounted to 0.7 µg/mL (≈ 1.93 µM).
As for `Cc1c(N2C[C@H](N)[C@@H](F)C2)c(F)cn2c(=O)c(C(=O)O)cc(C3CC3)c12`, the MIC in [1] (setting [16]) turned out to be 0.2 µg/mL (≈ 0.55 µM); in experiment [2] (setting [17]), 0.02 µg/mL (≈ 0.055 µM); in [3] (setting [18]), 0.05 µg/mL (≈ 0.138 µM); in experiment [4] (setting [19]), 0.39 µg/mL (≈ 1.07 µM); in experiment [5] (setting [20]) it was 0.39 µg/mL (≈ 1.07 µM); in experiment [6] (setting [21]) it was 0.78 µg/mL (≈ 2.15 µM). Besides, the figures for the MIC in experiment [8] (setting [18]), in experiment [9] (setting [22]) and in [10] (setting [23]) were 1.56 µg/mL (≈ 4.29 µM), 0.39 µg/mL (≈ 1.07 µM) and 0.78 µg/mL (≈ 2.15 µM), respectively. Besides, the ED50 in experiment [11] is 4.8 mg/kg/day; in experiment [14], over 10 mg/kg/day; in [15], over 5 mg/kg/day; in [13] it was 25 mg/kg/day.
For `Cc1c(N2C[C@H](CF)[C@H](N)C2)c(F)cn2c(=O)c(C(=O)O)cc(C3CC3)c12`, the MIC is 0.02 µg/mL (≈ 0.053 µM) in experiment [1] (setting [16]); 0.005 µg/mL (≈ 0.0132 µM) in experiment [2] (setting [17]); 0.01 µg/mL (≈ 0.0265 µM) in experiment [3] (setting [18]); 0.1 µg/mL (≈ 0.265 µM) in [5] (setting [20]); 0.39 µg/mL (≈ 1.03 µM) in experiment [6] (setting [21]); 0.005 µg/mL (≈ 0.0132 µM) in experiment [7]. The MIC in experiment [8] (setting [18]) came to 1.56 µg/mL (≈ 4.13 µM); in experiment [9] (setting [22]), 0.02 µg/mL (≈ 0.053 µM); in experiment [10] (setting [23]) it was 0.2 µg/mL (≈ 0.53 µM).
As to `Cc1c(N2C[C@@H](N)[C@H](F)C2)c(F)cn2c(=O)c(C(=O)O)cc(C3CC3)c12` (stereo in doubt; 3a) [listing 2 of 2 here], the MIC in experiment [1] is 0.05 µg/mL (≈ 0.138 µM); in experiment [2], 0.02 µg/mL (≈ 0.055 µM); in experiment [3] it was 0.02 µg/mL (≈ 0.055 µM); in experiment [4], 0.2 µg/mL (≈ 0.55 µM); in experiment [5] it was 0.1 µg/mL (≈ 0.275 µM); in experiment [6], 1.56 µg/mL (≈ 4.29 µM). Further, the minimal inhibitory concentration (MIC) in [7] amounted to 0.02 µg/mL (≈ 0.055 µM); in [8], 0.78 µg/mL (≈ 2.15 µM); in experiment [9], 0.2 µg/mL (≈ 0.55 µM); in [10], 0.78 µg/mL (≈ 2.15 µM).
As to `Cc1c(N2CCC(F)(CN)C2)c(F)cn2c(=O)c(C(=O)O)cc(C3CC3)c12` (stereo unspecified), the MIC in experiment [1] (setting [16]) was 0.05 µg/mL (≈ 0.132 µM); in experiment [2] (setting [17]), 0.005 µg/mL (≈ 0.0132 µM); in [3] (setting [18]), 0.01 µg/mL (≈ 0.0265 µM); in experiment [4] (setting [19]), 0.02 µg/mL (≈ 0.053 µM); in experiment [5] (setting [20]), 0.02 µg/mL (≈ 0.053 µM); in experiment [6] (setting [21]) it was 0.78 µg/mL (≈ 2.07 µM). For the same molecule, the MIC in [7] was determined as 0.02 µg/mL (≈ 0.053 µM); in experiment [8] (setting [18]), 0.39 µg/mL (≈ 1.03 µM); in experiment [9] (setting [22]) it was 0.02 µg/mL (≈ 0.053 µM); in [10] (setting [23]), 0.39 µg/mL (≈ 1.03 µM).
